The values that follow come from patent US12703851B2, “Cell culture methods” (The University of Massachusetts, priority 2019, dated 2026).

Holding throughout (type): cell-based, Chinese hamster
Experiment [1] deals with CHO-K1 cell line. Briefly: Fed-batch spiking test, IgG glycan profile by HPLC with Glycan Column. Conditions: for impact on G1F formation: versus control group. As to the method: Industrial standard Fed-batch process: CHO-K1 cell line is cultured in corresponding media. Feed for 14 days, with 6 mM glutamine supplement on the inoculation day. The working volume is 30 mL in 125 mL shake flasks, and the inoculation cell density is 0.5 million cells/mL. The parameters for the shaking incubator are: 125 RPM, and 5% CO2. The feeding strategy is 10% corresponding feed everyday starting from day 3 to day 13.
In the standard industrial fed-batch process, cells were exposed to the inhibitors for a long period of time. This experiment mimics the therapeutic antibody production process, and spikes the inhibitors at their end-of-culture cellular concentration. ICA was confirmed as a known inhibitor and was used as a positive inhibitor control. Mixture condition excluded ICA and included AA, HICA, CMP, MSA, TRI, NAP. The process lasted for 14 days, and starting from day 6, the cell density under the inhibitor conditions were lower than the negative control batch.
IgG titer was measured by HPLC with a Protein A column. Product quality was quantified by the IgG glycan profile, which was measured by HPLC with a Glycan Column.

Experiment [2] has as its system CHO K-1. Briefly: Batch culture spiking of metabolites at end-of-culture concentration. Conditions: spiked at end-of-culture concentration, 6 days batch culture. As to the method:
CHO K-1 industrial standard batch process: NIH CHO-K1 cell line is cultured for 6 days, with 6 mM glutamine supplement on the inoculation day. The working volume is 30 mL in 125 mL shake flasks, and the inoculation cell density is 0.5 million cells/mL. The parameters for the shaking incubator are: 125 RPM, and 5% CO2.
Cells were exposed to the identified inhibitory metabolites of Table 1 at their end-of-culture concentration for 6 days in batch culture. […] All of the inhibitory metabolites decreased the antibody productivity (FIG. 4).

In experiment [3] the test system is CHO-S cells. In words: Inhibitory metabolite accumulation in transiently transfected CHO-S subclones (LC-MS). Set-up: dose or concentration left out as unconfirmed. The note with it: 6 days. As to the method: FIG. 17A-G are graphs showing inhibitory metabolite accumulation in different subclones. Accumulation concentration of metabolites shown here: FIG. 17A, CMP; FIG. 17B, GMP; FIG. 17C, HICA, FIG. 17D, MSA, FIG. 17E, NAP, FIG. 17F, TAA; and FIG. 17G, TRI. The study was divided into […] unique subclone groups. […] A negative control was included where no plasmid transfection occurred. Each subclone was cultured for 6 days at which time cells and cell culture supernatant were collected. Cells for both the control and transfection subclones were derived from the same culture to eliminate variation in growth cycle and other culture conditions. Quantification of inhibitory metabolites accumulation was performed through LC-MS. Bars, mean±s.e.m.; n=3, *p<0.05, **p<0.01, ***p<0.001. Statistics by two-tailed t-test. LC-MS/MS method for metabolites profiling: Standards of metabolites were purchased from Sigma Aldrich (St. Louis, MO) and used for identification of wasted inhibitor metabolites. Operating parameters and samples preparation protocol were followed to a previously published protocol. Quantification of expression level of transfected gene of interest through qPCR. The expression level of seven different genes transfected into CHO-S cells were evaluated using relative quantification (RQ) compared to the calibrator. The study was divided into eight unique subclone groups. […] A negative control was included in the study where no genetic engineering work involving plasmid transfection occurred. Each subclone was cultured for 6 days. Cells for both the control and transfection subclones were derived from the same culture to eliminate variation in growth cycle and other culture conditions. […] Gene functionality study through metabolic pathway analysis. As mentioned previously, HICA is generated as the downstream metabolite from the metabolism of leucine in mammalian cells, of which cellular biochemical activities are regulated by ADH5 and BCAT1 enzymes. […] A negative control was included in the study where no genetic engineering work involving plasmid transfection occurred.

SMILES strings stand for the structures. “Also recorded” adds a separate entry of the source.

In the case of `CC(CC(=O)O)C(=O)O` (centres unmarked) [MSA, methylsuccinic acid], the “impact on G1F formation” value in experiment [1] is listed as “higher impact on G1F formation”.
`O=C(O)C=C(CC(=O)O)C(=O)O` [AA, aconitic acid]: the “cell density versus control group” value in experiment [2] is on record as “lower cell density than the control group”. For the same compound, the “impact on G2F formation” value in experiment [1] (Day 14, versus control group) was “totally inhibits the G2F formation; also recorded: G2F was not formed”. Also, the “impact on G1F formation” value in experiment [1] was “higher impact on G1F formation”.
Turning to `C[n+]1cccc(C(=O)[O-])c1` [TRI, trigonelline], the “decrease in accumulation versus control” value in experiment [3] (Bcat1 transfected clone) amounted to 42.96%; in experiment [3] (Cat transfected clone) it was 27.8%; in experiment [3] (Got1 transfected clone), 40.43%; in experiment [3] (Hadhb transfected clone) it was 35.38%.
As to `Nc1ccn([C@@H]2O[C@H](COP(=O)(O)O)[C@@H](O)[C@H]2O)c(=O)n1` [CMP, cytidine-5′-monophosphate], in experiment [2], the “cell density versus control group” value is listed as “lower cell density than the control group”. For the same compound, the “impact on G1F formation” value in experiment [1] is on record as “higher impact on G1F formation”. In addition, the results for the “decrease in accumulation versus control” value in experiment [3] (Got1 transfected clone), in experiment [3] (Hoga1 transfected clone) and in experiment [3] (Slc35a1 transfected clone) were 35.68%, 33.59% and 50.63%, respectively.
For the compound `O=C(O)c1c[nH]c2ccccc12` [ICA, indole-3-carboxylic acid, reference compound], in experiment [2], the “cell density versus control group” value is “lower cell density than the control group”. Moreover, the “impact on G1F formation” value in experiment [1] is given as “higher impact on G1F formation”.
With `CC(C)CC(O)C(=O)O` (stereo not drawn) [HICA, α-hydroxyisocaproic acid], the “impact on G1F formation” value in experiment [1] is reported as “higher impact on G1F formation”. Further, the “decrease in accumulation versus control” value worked out at 86.13% in experiment [3] (Adh5 transfected clone), 72.31% in experiment [3] (Bcat1 transfected clone), 27.05% in experiment [3] (Hadhb transfected clone) and 73.51% in experiment [3] (Slc35a1 transfected clone).
